Counter-ions that a name gives are not always drawn. Like-named read-outs stand apart in the source and are kept apart here.
Assays:
[1] = Human hepatocyte clearance (HHEP CL); format: in vitro ADME; set-up: CLint scaled / half-life: dose or concentration left out as unconfirmed; conditions: for half-life / CLint scaled: both sexes
Protocol: Suspensions of human hepatocytes (from 10 mixed gender human donors, final concentration 0.5×10^6 cell/mL) in Williams' E medium were incubated for 90 min with a test compound (0.90% acetonitrile and 0.10% DMSO, final concentration […]) and positive controls (7-Ethoxycoumarin, 7-Hydroxycoumarin, 0.90% acetonitrile and 0.10% DMSO, final concentration […]), with constant shaking at about 600 rpm at 37° C. in an incubator at 5% CO2 and 95% humidity. The total volume of incubation was 200 μl. A sample ([…]) was taken out at T0, 15, 30, 60 and 90 min, which was added intermediately to the ice-cold stop solution (acetonitrile with 200 ng/mL of to butamide and labetalol as internal standard) (125 μl), and vortexed at 500 rpm for 10 min, centrifuged at 3220×g for 20 min at 4° C. Analytical plates were sealed and stored at 4° C. until LCMS analysis. Viability of hepatocytes at pre-incubation was determined to be 84.5%.
(§1) Human liver microsome clearance assay assess metabolism by the cytochrome P450 system (phase I enzymes). These enzymes oxidize substrates by incorporating oxygen atoms into hydrocarbons, thus causing the introduction of hydroxyl groups, or N- O- and S-dealkylation of substrates and forming more polar products easier to be cleared. Human hepatocyte clearance assay measures more broadly the overall cellular metabolism of the test compound (phase I and phase II enzyme pathways). Phase II enzymes catalyze the conjugation reaction of xenobiotic metabolites and charged species, such as glutathione, sulfate, glycine, or glucuronic acid to form even more polar compounds for easier clearance.

Jeko-1 = experiment: CTG assay of payloads, Jeko-1 cells; format: cell-based, human; conditions: 72 h, CellTiter-Glo
Text: (§2) The CTG assay is a method of determining the number of viable cells in culture based on quantitation of the ATP present, an indicator of metabolically active cells. The cell assay requires the addition of a single reagent, Cell Titer Glo, in which cells are lysed and generation of a luminescent signal is produced. The luminescent signal is proportional to the amount of ATP present. The amount of ATP is directly proportional to the number of cells present in culture. For this assay, cells were ensured to be in log-phase for either Jeko-1 or MDA-MB-468. Cells were transferred to 96 wells and treated with compounds in three-fold serial dilution starting from […] (10 points dilution), for 72 h. Cell viability was analyzed with CellTiter-Glo® Luminescent Cell Viability Assay (Promega) following manufactures' instruction. Percentage of viable cells in each compound concentration was determined by normalizing with the luminescence of vehicle control and plotted into percentage of viability versus dose response curve by nonlinear fit in GraphPad Prism software.

[2] = Human liver microsome clearance (HLM CL); format: in vitro ADME; set-up: CLint scaled / half-life: dose or concentration left out as unconfirmed
Protocol: Working solution was prepared by adding 5 μL of compound and control stock solution (10 mM in dimethyl sulfoxide, DMSO) to 495 μL of acetonitrile (ACN) (intermediate solution concentration: 100 μM, 99% CAN and 1% DMSO. The appropriate concentrations of microsome working solutions were prepared in 100 mM potassium phosphate buffer. After reaction plates containing mixtures of compound and microsomes were pre-incubated at 37° C. for 10 min, […] of 2 mM of NADPH and 2 mM of MgCl2 solution was added to start the reaction. The final concentrations of incubation medium were as follows: microsome—0.5 mg protein/mL, test compound/control […], NADPH—1 mM, MgCl2—1 mM, acetonitrile 0.99%, DMSO 0.01%. Incubations were performed at 37° C. for 60 min. Samples were taken out at T0, T5, T15, T30, T45 and T60, which was added intermediately to the ice-cold stop solution (acetonitrile with 200 ng/mL of to butamide and labetalol as internal standard) (125 μl), shaken for 10 min, centrifuged at 4000 rpm for 20 min at 4° C. Analytical plates were analyzed by LCMS.
as §1

[3] = PAMPA (Parallel Artificial Membrane Permeability Assay); format: physicochemical; set-up: dose or concentration left out as unconfirmed
Text: PAMPA is a method which determines the permeability of substances from a donor compartment, through a lipid-infused artificial membrane into an acceptor compartment. See Ottaviani, G.; Martel, S.; Carrupt, P-A. “Parallel Artificial Membrane Permeability Assay: A New Membrane for the Fast Prediction of Passive Human Skin Permeability”, Journal of Medicinal Chemistry, 2006, 49 (13), 3948-3954). A multi-well microtitre plate is used for the donor and a membrane/acceptor compartment is placed on top; the whole assembly is commonly referred to as a “sandwich”. At the beginning of the test, the drug is added to the donor compartment, and the acceptor compartment is drug-free. After an incubation period which may include stirring, the sandwich is separated, and the amount of drug is measured in each compartment. Mass balance allows calculation of drug that remains in the membrane.
The PAMPA was performed by Pion Inc using the GIT-0 lipid and 5 mM donor solution in pH 5.0 and pH 7.4 PRISMA buffer (containing 0.05% DMSO). The higher PAMPA data has been associated with better bystander killing. (Ogitani Y.; Hagihara K.; Oitate, M.; Naito, H.; Agatsuma T. “Bystander killing effect of DS-8201a, a novel anti-human epidermal growth factor receptor 2 antibody-drug conjugate, in tumors with human epidermal growth factor receptor 2 heterogeneity” Cancer Science, 2016, 107 (7), 1039-1046).

MDA-MB-468 = experiment: CTG assay of payloads, MDA-MB-468 cells; format: cell-based, human; conditions: Table 1, 72 h, CellTiter-Glo
Text: as §2

SMILES | half-life ([1]; human, hepatocytes) [min] | IC50 (Jeko-1; Homo sapiens, JeKo-1, Table 2) [nM] | half-life ([2]; human, microsomes) [min] | Papp ([3]; pH 5) [×10⁻⁶ cm/s] | Papp ([3]; pH 7.4) [×10⁻⁶ cm/s] | other results
CC[C@@]1(O)C(=O)OCc2c1cc1n(c2=O)Cc2c-1nc1cc(F)c(C)c3c1c2[C@](C)(CCCO)CC3 (single isomer, unassigned) [Compound 15-75] | 76.5 | 0.88 | 22.4 | 16.5 | 11.5 | 
CC[C@@]1(O)C(=O)OCc2c1cc1n(c2=O)Cc2c-1nc1cc(F)c(C)c3c1c2[C@@](C)(CCCO)CC3 (single isomer, unassigned) [Compound 15-76] | 40.8 | 0.27 | 5.2 | 45.5 | 33.2 | 
CC[C@@]1(O)C(=O)OCc2c1cc1n(c2=O)Cc2c-1nc1cc(F)c(C)c3c1c2[C@@](C)(CCO)CC3 (single isomer, unassigned) [Compound 14-71] | 47 | 0.18 | 10.8 | 25 | 17.3 | 
CC[C@@]1(O)C(=O)OCc2c1cc1n(c2=O)Cc2c-1nc1cc(F)c(C)c3c1c2[C@@](C)(N(C)CCO)CC3.Cl (single isomer, unassigned) [Compound 6-44, hydrochloride] |  |  |  |  |  | IC50 (MDA-MB-468; Homo sapiens, MDA-MB-468): 198 nM; CLint scaled ([1]; Table 1, human hepatocytes intrinsic clearance, read-out: HHEP Cl): 48.3 mL/min/kg; IC50 (Jeko-1; Homo sapiens, JeKo-1, Table 1): 24.1 nM; CLint scaled ([2]; microsomes, Table 1, human liver microsome clearance, read-out: HLM Cl): 51.7 mL/min/kg
CC[C@@]1(O)C(=O)OCc2c1cc1n(c2=O)Cc2c-1nc1cc(F)c(C)c3c1c2[C@@](C)(COCCO)CC3 (single isomer, unassigned) [Compound 16-83] | 113 | 1.1 | 25.7 | 47.7 | 25.1 | 
C=CC[C@@H]1CCc2c(C)c(F)cc3nc4c(c1c23)Cn1c-4cc2c(c1=O)COC(=O)[C@]2(O)CC (single isomer, unassigned) [Compound 17-86] | 46 | 0.93 | 13 |  |  | 
CC[C@@]1(O)C(=O)OCc2c1cc1n(c2=O)Cc2c-1nc1cc(F)c(C)c3c1c2[C@@H](CCO)CC3 (single isomer, unassigned) [Compound 12-59] | 64.3 | 0.32 | 20.1 | 46.9 | 33.4 | 
CC[C@@]1(O)C(=O)OCc2c1cc1n(c2=O)Cc2c-1nc1cc(F)c(C)c3c1c2[C@](C)(CO)CC3 (single isomer, unassigned) [Compound 3-27] | 62 |  | 9.7 | 62.2 | 8.5 | IC50 (MDA-MB-468; Homo sapiens, MDA-MB-468): 18.6 nM; CLint scaled ([1]; human, hepatocytes): 62.4 mL/min/kg; IC50 (Jeko-1; Homo sapiens, JeKo-1, Table 1): 2.1 nM; CLint scaled ([2]; human, microsomes): 128 mL/min/kg
CC[C@@]1(O)C(=O)OCc2c1cc1n(c2=O)Cc2c-1nc1cc(F)c(C)c3c1c2[C@](C)(N(C)CCO)CC3 (single isomer, unassigned) [Compound 7-45, hydrochloride] | 42 |  | 9 | 56.6 | 7.5 | IC50 (MDA-MB-468; Homo sapiens, MDA-MB-468): 258 nM; CLint scaled ([1]; human, hepatocytes): 92.2 mL/min/kg; IC50 (Jeko-1; Homo sapiens, JeKo-1, Table 1): 33.5 nM; CLint scaled ([2]; human, microsomes): 137 mL/min/kg
CC[C@@]1(O)C(=O)OCc2c1cc1n(c2=O)Cc2c-1nc1cc(F)c(C)c3c1c2[C@H](CCCO)CC3 (single isomer, unassigned) [Compound 13-63] | 141 | 0.44 | 27.1 | 34.7 | 32.9 | 
CC[C@@]1(O)C(=O)OCc2c1cc1n(c2=O)Cc2c-1nc1cc(F)c(C)c3c1c2[C@@H](CCCO)CC3 (single isomer, unassigned) [Compound 13-64] | 79.4 | 0.28 | 22 | 14.6 | 10.6 | 
CC[C@@]1(O)C(=O)OCc2c1cc1n(c2=O)Cc2c-1nc1cc(F)c(C)c3c1c2[C@@](C)(N(C)CCO)CC3.Cl (single isomer, unassigned) [Compound 6-44] |  |  |  |  |  | half-life ([1]; Table 1, human hepatocytes, read-out: HHEP (T1/2)): 80 min; half-life ([2]; Table 1, human liver microsomes, read-out: HLM (T1/2)): 24 min; Papp ([3]; Table 1, pH 5.0, read-out: PAMPA Pe pH 5.0): 54.9 ×10⁻⁶ cm/s; Papp ([3]; Table 1, pH 7.4, read-out: PAMPA Pe pH 7.4): 8.3 ×10⁻⁶ cm/s
CC[C@@]1(O)C(=O)OCc2c1cc1n(c2=O)Cc2c-1nc1cc(F)c(C)c3c1c2[C@](C)(CCO)CC3 (single isomer, unassigned) [Compound 14-70] | 53.6 | 0.79 | 18.4 | 44.2 | 28.5 | 
CC[C@@]1(O)C(=O)OCc2c1cc1n(c2=O)Cc2c-1nc1cc(F)c(C)c3c1c2[C@](C)(COCCO)CC3 (single isomer, unassigned) [Compound 16-82] | 45 | 0.64 | 5.6 | 54.8 | 25.5 | 
CC[C@@]1(O)C(=O)OCc2c1cc1n(c2=O)Cc2c-1nc1cc(F)c(C)c3c1c2C(CO)(CO)CC3 [Compound 2-20, (S)-9-ethyl-5-fluoro-9-hydroxy-1,1-bis(hydroxymethyl)-4-methyl-2,3,12,15-tetrahydrobenzo [de]pyrano[3′,4′:6,7]indolizino[1,2-b]quinoline-10,13(1H,9H)-dione] | 161 |  | 27 |  |  | IC50 (MDA-MB-468; Homo sapiens, MDA-MB-468): 351 nM; CLint scaled ([1]; human, hepatocytes): 24 mL/min/kg; IC50 (Jeko-1; Homo sapiens, JeKo-1, Table 1): 40.8 nM; CLint scaled ([2]; human, microsomes): 46 mL/min/kg
C=CC[C@H]1CCc2c(C)c(F)cc3nc4c(c1c23)Cn1c-4cc2c(c1=O)COC(=O)[C@]2(O)CC (single isomer, unassigned) [Compound 17-87] | 31 | 0.58 | 5.4 |  |  | 
CC[C@@]1(O)C(=O)OCc2c1cc1n(c2=O)Cc2c-1nc1cc(F)c(C)c3c1c2[C@@H](NC(=O)CO)CC3 [Dxd, reference compound] |  |  |  |  |  | IC50 (MDA-MB-468): 11.6 nM; HHEP (T1/2) ([1]; Table 1, human hepatocytes): (217) min; HHEP Cl ([1]; Table 1, human hepatocytes intrinsic clearance): 17.8 mL/min/kg; HHEP Cl (T1/2) ([1]; Table 2, one value per cell): >217; IC50 (Jeko-1; Table 1): 1.42 nM; IC50 (Jeko-1; Table 2): 0.52 nM; HLM Cl ([2]; Table 1, human liver microsome clearance): 8.6 mL/min/kg; HLM (T1/2) ([2]; Table 1, human liver microsomes): (>145); HLM Cl (T1/2) ([2]; Table 2, one value per cell): 52.2
CC[C@@]1(O)C(=O)OCc2c1cc1n(c2=O)Cc2c-1nc1cc(F)c(C)c3c1c2[C@H](CCO)CC3 (single isomer, unassigned) [Compound 12-58] | 68.1 | 0.24 | 20.1 | 2.9 | 3.8 | 
